The record followed here is patent US5827895A, “Hexahydrolupulones useful as anticancer agents” (Regents of the University of Minnesota, priority 1996, dated 1998).

Common to all, as to test: microbe, parasite or virus in culture
Common to all, as to type: cell-based, M. tuberculosis

Experiment [1] relates to Isoniazid and Rifampin Resistant TB. The note with it: Mycobacterium tuberculosis, read-out: inhibition of Isoniazid and Rifampin Resistant TB.
Experiment [2] concerns Pyrazinamide Resistant TB. The note with it: Mycobacterium tuberculosis, read-out: inhibition of Pyrazinamide Resistant TB growth.
In experiment [3] the test system is Isoniazid Resistant TB. The note with it: Mycobacterium tuberculosis, read-out: inhibition of Isoniazid Resistant TB growth.

As to `CC(C)CCC1=C(O)C(C(=O)C(C)C)=C(O)C(CCC(C)C)(CCC(C)C)C1=O` [HHC, hexahydrocolupulone], the inhibition at 75 µM in experiment [1] was found to be 92%; in experiment [2] it was 98%; in experiment [3], 91%.
